This data set can be described thus: TIMS collisional cross section (CCS, N2) of the lipid ion; higher = larger ion cross section. To be noted: ionization mode: positive, one isomer drawn.

± gives the standard deviation of the averaged measurements.

With `CCCCCC/C=C\CCCCCCCC(=O)O[C@H](COC(=O)CCCCCCCCCCCCCC)COC(=O)CCCCCCCCCCCCCCCC` [TG 15:0_16:1_17:0] (ion (formula + adduct): [C51H96O6+NH4] 1+), the “TIMS collisional cross section” value (sample type: Liver) came to 312.5 Å². On to `CCCCC/C=C\C/C=C\CCCCCCCC(=O)OC[C@@H](COC(=O)CCCCCCC/C=C\CCCCCC)OC(=O)CCCCCCC/C=C\CCCCCCC` [TG 16:1_17:1_18:2] (ion (formula + adduct): [C54H96O6+NH4] 1+), for which the “TIMS collisional cross section” value (sample type: HeLa) was 315.1 Å², the “TIMS collisional cross section” value (sample type: Liver) is listed as 313.9 Å² and the “TIMS collisional cross section” value (sample type: plasma) turned out to be 314.6 Å². For `CC/C=C\C/C=C\C/C=C\C/C=C\C/C=C\C/C=C\CCC(=O)OC[C@@H](COC(=O)CCCCCCCCCCCCCCC)OC(=O)CCCCCCCCCCCCCCC` [TG 16:0_16:0_22:6] (ion (formula + adduct): [C57H98O6+NH4] 1+), the “TIMS collisional cross section” value (sample type: HeLa) was 324 Å². Same read-out and setting: the same measure for `CC(C)CCC[C@@H](C)[C@H]1CC[C@H]2[C@@H]3CC=C4C[C@@H](O)CC[C@]4(C)[C@H]3CC[C@]12C` [Cholesterol] (ion (formula + adduct): [C27H46O+H] 1+): 207.1 Å². On to `CCCC/C=C\CCCCCCCC(=O)OC[C@H](COC(=O)CCCCCCCCCCCCCCCCC)OC(=O)CCCCCCC/C=C\CCCCCC` [TG 14:1_16:1_18:0] (ion (formula + adduct): [C51H94O6+NH4] 1+), for which the “TIMS collisional cross section” value (sample type: HeLa) was 309.6 Å². For `CC/C=C\C/C=C\C/C=C\C/C=C\C/C=C\C/C=C\CCC(=O)OC[C@@H](COC(=O)CCCCCCCCCCCCC)OC(=O)CCCCCCCCCCCCCCC` [TG 14:0_16:0_22:6] (ion (formula + adduct): [C55H94O6+NH4] 1+), the “TIMS collisional cross section” value (sample type: HeLa) amounted to 317.6 Å².

As for `CC/C=C\C/C=C\C/C=C\C/C=C\C/C=C\C/C=C\CCC(=O)O[C@@H](CO)COC(=O)CCCCCCCCCCCCCCC` [DG 16:0_22:6_0:0] (ion (formula + adduct): [C41H68O5+NH4] 1+), the “TIMS collisional cross section” value (sample type: Liver) amounted to 267.7 Å². With `CCCCCC/C=C\CCCCCCCC(=O)OC[C@H](COP(=O)(O)OCCN)OC(=O)CCCCCCCCCCCCC` [PE 16:1_14:0] (ion (formula + adduct): [C35H68NO8P+H] 1+), where the note is “sample type: HeLa”, the “TIMS collisional cross section” value amounted to 262 Å².

In the case of `CCCCCC/C=C\CCCCCCCC(=O)O[C@H](CO/C=C\CCCCCCCCCCCCCC)COP(=O)([O-])OCC[N+](C)(C)C` [PC P- 16:0@_16:1] (ion (formula + adduct): [C40H78NO7P+H] 1+), the “TIMS collisional cross section” value (sample type: HeLa) is recorded as 281.9 Å². Take `CCCCCC/C=C\CCCCCCCC(=O)O[C@H](COC(=O)CCCCCCCCCCC)COC(=O)CCCCCCCCCCCCCCCC` [TG 12:0_16:1_17:0] (ion (formula + adduct): [C48H90O6+NH4] 1+): the “TIMS collisional cross section” value (sample type: Liver) is reported as 303 Å².

Consider `CC/C=C\C/C=C\C/C=C\C/C=C\C/C=C\C/C=C\CCC(=O)OC[C@@H](COC(=O)CCCCCCC/C=C\CCCCCCCC)OC(=O)CCC/C=C\C/C=C\C/C=C\C/C=C\CCCCC` [TG 18:1_20:4_22:6] (ion (formula + adduct): [C63H100O6+NH4] 1+), for which the “TIMS collisional cross section” value (sample type: plasma) is 332.5 Å².

For `CCCCC/C=C\C/C=C\CCCCCCCCCC(=O)OC[C@@H](COC(=O)CCCCCCCCCCCCCCCC)OC(=O)CCCCCCC/C=C\CCCCCCCC` [TG 17:0_18:1_20:2] (ion (formula + adduct): [C58H106O6+NH4] 1+), the “TIMS collisional cross section” value (sample type: plasma) came out at 329.3 Å². `CCCCC/C=C\C/C=C\C/C=C\C/C=C\C/C=C\CCC(=O)O[C@H](COCCCCCCCCCCCCCCCCCC)COP(=O)([O-])OCC[N+](C)(C)C` [PC O- 18:0@_22:5] (ion (formula + adduct): [C48H88NO7P+H] 1+): the “TIMS collisional cross section” value (sample type: HeLa) amounted to 300.2 Å². As for `CCCCC/C=C\C/C=C\C/C=C\C/C=C\C/C=C\CCC(=O)OC[C@@H](O)COP(=O)([O-])OCC[N+](C)(C)C` [LPC 22:5] (ion (formula + adduct): [C30H52NO7P+H] 1+), the “TIMS collisional cross section” value was 232.9 Å² (sample type: HeLa) and 233.2 Å² (sample type: plasma). Regarding `CCCCCCCCCCCCC/C=C/[C@@H](O)[C@H](CO[C@@H]1O[C@H](CO)[C@@H](O)C(O)C1O)NC(=O)CCCCCCCCCCCCCCCCCCCCCC` (stereo partly specified) [GlcCer d18:1_23:0@] (ion (formula + adduct): [C47H91NO8+H] 1+), the “TIMS collisional cross section” value (sample type: HeLa) came to 301.5 Å² and the “TIMS collisional cross section” value (sample type: Liver) came out at 301.2 Å². Take `CCCCCCCCCCCCC/C=C/[C@@H](O)[C@H](CO[C@@H]1O[C@H](CO)[C@@H](O)C(O)C1O)NC(=O)CCCCCCCCCCCCCCCCCCC` (stereo partly specified) [GlcCer d18:1_20:0@] (ion (formula + adduct): [C44H85NO8+H] 1+): the “TIMS collisional cross section” value (sample type: Liver) is 292.9 Å². Turning to `CCCCC/C=C\C/C=C\C/C=C\CCCCC(=O)O[C@H](COC(=O)CCCCCCCCCCCCCCCCC)COP(=O)(O)OCCN` [PE 18:0@_18:3] (ion (formula + adduct): [C41H76NO8P+H] 1+), the “TIMS collisional cross section” value (sample type: plasma) was 279 Å².

On to `CCCCC/C=C\C/C=C\CCCCCCCCCCCC(=O)O[C@H](COC(=O)CCCCCCC/C=C\CCCCCCCC)COP(=O)([O-])OCC[N+](C)(C)C` [PC 18:1_22:2@] (ion (formula + adduct): [C48H90NO8P+H] 1+), for which the “TIMS collisional cross section” value (sample type: HeLa) was 302.4 Å². Regarding `CCCCC/C=C\C/C=C\CCCCCCCC(=O)OC[C@H](COP(=O)(O)OCCN)OC(=O)CCCCCCCCC/C=C\CCCCCCCC` [PE 18:2_20:1] (ion (formula + adduct): [C43H80NO8P+Na] 1+), for the setting “sample type: Liver”, the “TIMS collisional cross section” value is listed as 284.2 Å².

As for `CCCCC/C=C\C/C=C\C/C=C\C/C=C\CCCC(=O)O[C@H](COC(=O)CCCC/C=C\C/C=C\C/C=C\CCCCC)COP(=O)([O-])OCC[N+](C)(C)C` [PC 18:3@_20:4] (ion (formula + adduct): [C46H78NO8P+H] 1+), the “TIMS collisional cross section” value (sample type: plasma) is reported as 292.8 Å².

Turning to `CC/C=C\C/C=C\C/C=C\C/C=C\C/C=C\C/C=C\CCC(=O)O[C@H](COC(=O)CCCCCCC/C=C\CCCCC)COP(=O)([O-])OCC[N+](C)(C)C` [PC 15:1_22:6] (ion (formula + adduct): [C45H76NO8P+H] 1+), the “TIMS collisional cross section” value (sample type: plasma) was found to be 289.8 Å².

For `CCCCC/C=C\C/C=C\C/C=C\C/C=C\CCCC(=O)O[C@H](COC(=O)CCCCCCCCCCCCCCC)COC(=O)CCCCCCCCCCCCCCCCCCCCC` [TG 16:0_20:4_22:0] (ion (formula + adduct): [C61H110O6+NH4] 1+), the “TIMS collisional cross section” value (sample type: Liver) amounted to 338.2 Å². Take `CCCCC/C=C\C/C=C\CCCCCCCC(=O)O[C@H](COC(=O)CCCCCCC/C=C\CCCCCCCC)COP(=O)(O)OCCN` [PE 18:1_18:2] (ion (formula + adduct): [C41H76NO8P+H] 1+): the “TIMS collisional cross section” value was determined as 275.7 Å² (sample type: HeLa) and 276.1 Å² (sample type: Liver).

`CCCCCCCC/C=C\CCCCCCCC(=O)OC[C@@H](COC(=O)CCCCCCCCCCC)OC(=O)CCCCCCCCCCCCC` [TG 12:0_14:0_18:1] (ion (formula + adduct): [C47H88O6+NH4] 1+): the “TIMS collisional cross section” value (sample type: plasma) is listed as 298.9 Å².

`CCCCCCCC/C=C\CCCCCCCC(=O)O[C@H](COC(=O)CCCCCCCCCCCCCCC)COC(=O)CCCCCCCCCCCCCCCCCCC` [TG 16:0_18:1_20:0] (ion (formula + adduct): [C57H108O6+NH4] 1+): under “sample type: Liver”, the “TIMS collisional cross section” value is listed as 330.6 Å². Take `CCCCCCCCCCCCCCCC(=O)OC[C@H](COP(=O)(O)OCCN)OC(=O)CCCCCCCCCCCCC` [PE 16:0_14:0@] (ion (formula + adduct): [C35H70NO8P+H] 1+): the “TIMS collisional cross section” value (sample type: HeLa) stood at 267.4 Å². On the same count and under the same terms, the result for `CC/C=C\C/C=C\C/C=C\C/C=C\C/C=C\C/C=C\CCC(=O)O[C@H](COC(=O)CCC/C=C\C/C=C\C/C=C\C/C=C\CCCCC)COP(=O)([O-])OCC[N+](C)(C)C` [PC 20:4_22:6] (ion (formula + adduct): [C50H80NO8P+H] 1+) reads 295.5 Å². With `CCCCCCCCCCCCCCCC(=O)OC[C@@H](COC(=O)CCCCCCCCCCC)OC(=O)CCCCCCCCCCCCC` [TG 12:0_14:0_16:0] (ion (formula + adduct): [C45H86O6+NH4] 1+), the “TIMS collisional cross section” value came out at 294.93 ± 0.32 Å² (sample type: HeLa), 295.2 ± 0.42 Å² (sample type: Liver) and 295.5 Å² (sample type: plasma). On to `CCCCCCCC/C=C\CCCCCCCCCC(=O)O[C@H](COC(=O)CCCCCCC/C=C\CCCCCCCC)COP(=O)(O)OCCN` [PE 18:1@_20:1] (ion (formula + adduct): [C43H82NO8P+H] 1+), for which the “TIMS collisional cross section” value (sample type: HeLa) came out at 286.2 Å².

For the molecule `CCCCC/C=C\C/C=C\CCCCCCCCCCCC(=O)OC[C@@H](COC(=O)CCCCCCC/C=C\CCCCCCCC)OC(=O)CCCCCCC/C=C\C/C=C\CCCCC` [TG 18:1_18:2_22:2] (ion (formula + adduct): [C61H108O6+NH4] 1+), under “sample type: plasma”, the “TIMS collisional cross section” value is listed as 335.8 Å². For `CC/C=C\C/C=C\C/C=C\CCCCCCCC(=O)O[C@H](COC(=O)CCCCCCCCCCCCC)COP(=O)([O-])OCC[N+](C)(C)C` [PC 14:0@_18:3] (ion (formula + adduct): [C40H74NO8P+H] 1+), under “sample type: Liver”, the “TIMS collisional cross section” value was found to be 277.5 Å². With `CCCCC/C=C/C/C=C/C/C=C/C/C=C/CCCC(=O)OC[C@H](COP(=O)([O-])OCC[N+](C)(C)C)OC(=O)CCC/C=C/C/C=C/C/C=C/C/C=C/CCCCC` [PC 20:4_20:4] (ion (formula + adduct): [C48H80NO8P+H] 1+), under “sample type: HeLa”, the “TIMS collisional cross section” value amounted to 292.7 Å². Take `CCCCC/C=C\C/C=C\C/C=C\C/C=C\CCCC(=O)O[C@H](COC(=O)CCCCCCC/C=C\C/C=C\CCCCC)COP(=O)([O-])OCC[N+](C)(C)C` [PC 18:2_20:4] (ion (formula + adduct): [C46H80NO8P+H] 1+): the “TIMS collisional cross section” value (sample type: Liver) is 290.1 Å². Turning to `CCCCC/C=C\C/C=C\CCCCCCCC(=O)O[C@H](COC(=O)CCCCCCC/C=C\CCCCCCCC)COC(=O)CCCCCCCCCCCCCCCCCCCC` [TG 18:1_18:2_21:0] (ion (formula + adduct): [C60H110O6+NH4] 1+), the “TIMS collisional cross section” value (sample type: Liver) is listed as 334.4 Å².

These data come from the supplement of paper PMC6965134.
